SMILES	melting point [°C]
Cc1nc(-n2cnn(CCC3CC3)c2=O)sc1C(=O)NCc1cccnc1 [Example 13, 2-(1-(2-cyclopropylethyl)-5-oxo-1H-1,2,4-triazol-4(5H)-yl)-4-methyl-N-(pyridin-3-ylmethyl)thiazole-5-carboxamide]	139 to 140
Cc1cncc(CNC(=O)c2sc(N3CCN(CC(C)C)C3=O)nc2C)n1 [Example 12.20, 2-(3-isobutyl-2-oxoimidazolidin-1-yl)-4-methyl-N-((6-methylpyrazin-2-yl)methyl)thiazole-5-carboxamide]	139 to 142
Cc1nc(N2C[C@@H](C)N(Cc3ccc(F)cc3)C2=O)sc1C(=O)NCc1cncs1 [Example 2.8, (R)-2-(3-(4-fluorobenzyl)-4-methyl-2-oxoimidazolidin-1-yl)-4-methyl-N-(thiazol-5-ylmethyl)thiazole-5-carboxamide]	66 to 69
Cc1nc(-n2cnn(CC3CC3)c2=O)sc1C(=O)NCc1ccncc1 [Example 14, 2-(1-(cyclopropylmethyl)-5-oxo-1H-1,2,4-triazol-4(5H)-yl)-4-methyl-N-(pyridin-4-ylmethyl)thiazole-5-carboxamide]	169 to 170
Cc1nc(N2C[C@@H](C)N(Cc3cc(F)cc(F)c3)C2=O)sc1C(=O)NCc1ccccn1 [Example 2.12, (R)-2-(3-(3,5-difluorobenzyl)-4-methyl-2-oxoimidazolidin-1-yl)-4-methyl-N-(pyridin-2-ylmethyl)thiazole-5-carboxamide]	147 to 148
Cc1nnc(-c2sc(N3CCN(Cc4ccccc4)C3=O)nc2C)[nH]1 [Example 11, 1-benzyl-3-(4-methyl-5-(5-methyl-4H-1,2,4-triazol-3-yl)thiazol-2-yl)imidazolidin-2-one]	284 to 287
Cc1nc(N2C[C@@H](C)N(Cc3ccc(C(F)(F)F)cc3)C2=O)sc1C(N)=O [Example 1.16, (R)-4-methyl-2-(4-methyl-2-oxo-3-(4-(trifluoromethyl)benzyl)imidazolidin-1-yl)thiazole-5-carboxamide]	110 to 112
Cc1cc(CNC(=O)c2sc(N3C[C@@H](C)N(Cc4ccc(F)cc4)C3=O)nc2C)[nH]n1 [Example 2.9, (R)-2-(3-(4-fluorobenzyl)-4-methyl-2-oxoimidazolidin-1-yl)-4-methyl-N-((3-methyl-1H-pyrazol-5-yl)methyl)thiazole-5-carboxamide]	215 to 216
Cc1nc(N2CCN(Cc3ccc(F)c(F)c3)C2=O)sc1C(N)=O [Example 1.7, 2-(3-(3,4-difluorobenzyl)-2-oxoimidazolidin-1-yl)-4-methylthiazole-5-carboxamide]	221 to 223
Cc1nc(N2CCN(Cc3cc(F)cc(F)c3)C2=O)sc1C(N)=O [Example 1.8, 2-(3-(3,5-difluorobenzyl)-2-oxoimidazolidin-1-yl)-4-methylthiazole-5-carboxamide]	> 200
Cc1nc(-n2cnn(Cc3ccc(F)cc3)c2=O)sc1C(N)=O [Example 1, 2-(1-(4-fluorobenzyl)-5-oxo-1H-1,2,4-triazol-4(5H)-yl)-4-methylthiazole-5-carboxamide]	232 to 233
Cc1nc(N2C(=O)N(Cc3ccc(F)cc3)C[C@H]2C)sc1C(=O)NCc1cncs1 [Example 2.19, (R)-2-(3-(4-fluorobenzyl)-5-methyl-2-oxoimidazolidin-1-yl)-4-methyl-N-(thiazol-5-ylmethyl)thiazole-5-carboxamide]	70 to 73
Cc1nc(-n2cnn(Cc3ccc(F)cc3)c2=O)sc1-c1nn[nH]n1 [Example 18, 1-(4-fluorobenzyl)-4-(4-methyl-5-(2H-tetrazol-5-yl)thiazol-2-yl)-1H-1,2,4-triazol-5(4H)-one]	136 to 139
Cc1cc(CNC(=O)c2sc(-n3cnn(Cc4ccc(F)cc4)c3=O)nc2C)[nH]n1 [Example 2.3, 2-(1-(4-Fluorobenzyl)-5-oxo-1H-1,2,4-triazol-4(5H)-yl)-4-methyl-N-((3-methyl-1H-pyrazol-5-yl)methyl)thiazole-5-carboxamide]	234 to 235
Cc1cc(CNC(=O)c2sc(N3C(=O)N(Cc4ccc(F)cc4)C[C@@H]3C)nc2C)no1 [Example 2.17, (S)-2-(3-(4-fluorobenzyl)-5-methyl-2-oxoimidazolidin-1-yl)-4-methyl-N-((5-methylisoxazol-3-yl)methyl)thiazole-5-carboxamide]	174 to 175
Cc1nc(N2CCN(CC3CC3)C2=O)sc1C(=O)NCc1cncc(F)c1 [Example 12, 2-(3-(cyclopropylmethyl)-2-oxoimidazolidin-1-yl)-N-((5-fluoropyridin-3-yl)methyl)-4-methylthiazole-5-carboxamide]	144 to 145
Cc1nc(N2C(=O)N(Cc3ccc(F)cc3)C[C@@H]2C)sc1C(=O)NCc1cnn(C)c1 [Example 2.16, (S)-2-(3-(4-fluorobenzyl)-5-methyl-2-oxoimidazolidin-1-yl)-4-methyl-N-((1-methyl-1H-pyrazol-4-yl)methyl)thiazole-5-carboxamide]	176 to 177
Cc1nc(N2CCN(CC(C)C)C2=O)sc1C(N)=O [Example 1.6, 2-(3-isobutyl-2-oxoimidazolidin-1-yl)-4-methylthiazole-5-carboxamide]	212 to 215
Cc1csc(CNC(=O)c2sc(N3CCN(CC4CC4(F)F)C3=O)nc2C)n1 (stereo not shown) [Example 16.3, 2-(3-((2,2-difluorocyclopropyl)methyl)-2-oxoimidazolidin-1-yl)-4-methyl-N-((4-methylthiazol-2-yl)methyl)thiazole-5-carboxamide]	157 to 159
Cc1nc(N2CCN(CC(C)C)C2=O)sc1C(=O)NCc1ccncc1 [Example 12.17, 2-(3-isobutyl-2-oxoimidazolidin-1-yl)-4-methyl-N-(pyridin-4-ylmethyl)thiazole-5-carboxamide]	185 to 187
Cc1nc(-n2cnn(CC3CC3)c2=O)sc1C(=O)NCc1cc[nH]n1 [Example 14.1, N-((1H-pyrazol-3-yl)methyl)-2-(1-(cyclopropylmethyl)-5-oxo-1H-1,2,4-triazol-4(5H)-yl)-4-methylthiazole-5-carboxamide]	167 to 168
Cc1cc(CNC(=O)c2sc(N3C[C@@H](C)N(Cc4cc(F)cc(F)c4)C3=O)nc2C)no1 [Example 2.14, (R)-2-(3-(3,5-difluorobenzyl)-4-methyl-2-oxoimidazolidin-1-yl)-4-methyl-N-((5-methylisoxazol-3-yl)methyl)thiazole-5-carboxamide]	63 to 66
Cc1nc(N2CCN(CC(C)C)C2=O)sc1C(=O)NCc1cnn(C)c1 [Example 12.21, 2-(3-isobutyl-2-oxoimidazolidin-1-yl)-4-methyl-N-((1-methyl-1H-pyrazol-4-yl)methyl)thiazole-5-carboxamide]	155 to 158
Cc1nc(N2CCN(Cc3ccc(F)cc3)C2=O)sc1C(=O)NCc1csc(C(C)C)n1 [Example 16.4, 2-(3-(4-fluorobenzyl)-2-oxoimidazolidin-1-yl)-N-((2-isopropylthiazol-4-yl)methyl)-4-methylthiazole-5-carboxamide]	170 to 172
Cc1nc(N2C[C@@H](C)N(Cc3ccc(F)cc3)C2=O)sc1C(N)=O [Example 1.15, (R)-2-(3-(4-fluorobenzyl)-4-methyl-2-oxoimidazolidin-1-yl)-4-methylthiazole-5-carboxamide]	185 to 186

— patent publication US8318949B2, “Organic compounds” (Novartis AG, priority 2008, dated 2012)
